Structures can show the parent of a compound that is named as a salt.

As usually defined, the ED50 is the midpoint of the dose-response relation.

The first experiment relates to acetylcholine-induced abdominal constriction. The experiment can be described thus: animal or person. The following applies: Mus musculus, iv, 10 mg./kg. i.v.; read-out: Ach percent inhibition. The class given is in vivo, mice. An excerpt: The test procedures used to determine the analgesic activities of the compounds have been described in detail in the prior art and are as follows: The acetylcholine-induced abdominal constriction test, which is a primary analgesic screening test designed to measure the ability of a test agent to suppress acetylcholine-induced abdominal constriction in mice, described by Collier et al., Brit. J. Pharmacol. Chemotherap. 32, 295 (1968); a modification of the anti-bradykinin test, which is also a primary analgesic screening procedure, described by Berkowitz et al., J. Pharmacol. Exptl. Therap. 177, 500-508 (1971), Blane et al., J. Pharm. Pharmacol. 19, 367-373 (1967), Botha et al., Eur. J. Pharmacol. 6, 312-321 (1969) and Deffenu et al., J. Pharm. Pharmacol. 18, 135 (1966); and the rat paw flexion test, described by Kuzuna et al., Chem. Pharm. Bull., 23, 1184-1191 (1975), Winter et al., J. Pharm. Exptl. Therap., 211, 678-685 (1979) and Capetola et al., J. Pharm. Exptl. Therap. 214, 16-23 (1980).
Unless noted otherwise, all data were obtained on oral administration and are expressed either as the ED50 or as the percent inhibition at a given dose level (thus 30/100 or 30% inhibition at […].)
In some instances, the compounds were retested two or more times, and ED50 values were calculated for each series of repeat tests. In such instances, each of the ED50 values so-obtained is given in a series of values, thus 6, 28, 30, 43 in the case of the species of Example 1AW in the acetylcholine-induced abdominal constriction test.
Regarding `Cc1c(C(=O)c2cccc3ccccc23)c2ccccc2n1CCN1CCN(C)CC1` [Example 3J], the inhibition in vivo at 10 mg/kg was found to be 30%.

Still in this experiment, the particulars now being: Mus musculus, iv; read-out: Ach ED50.
Turning to `Cc1c(C(=O)c2cccc3ccccc23)c2ccccc2n1CCN1CCCC(O)C1` (stereo not shown) [Example 3H], the ED50 came to 9.7 mg/kg.

The same experiment, now with this note: Mus musculus, po, 30 mg./kg. oral; read-out: Ach percent inhibition.
As for `Cc1c(C(=O)c2ccc(CNC(N)=NC#N)cc2)c2ccccc2n1CCN1CCOCC1` [Example 10, 2-methyl-3-(4-cyanoguanidinylmethylbenzoyl)-1-[2-(4-morpholinyl)ethyl]-1H-indole], the inhibition in vivo at 30 mg/kg worked out at 0%.
Regarding `Cc1c(C(=O)c2ccc(C=O)cc2)c2ccccc2n1CCN1CCOCC1` [Example 11, 2-methyl-3-(4-formylbenzoyl)-1-[2-(4-morpholinyl)ethyl]-1H-indole], the inhibition in vivo at 30 mg/kg worked out at 20%.

Still in this experiment, the particulars now being: Mus musculus, po, 100 mg./kg. oral; read-out: Ach percent inhibition.
With `Cc1c(C(=O)c2ccccc2C#N)c2ccccc2n1CCN1CCOCC1` [Example 2L], the inhibition in vivo at 100 mg/kg was found to be 10%.
As to `Cc1c(C(=O)c2cccc(C#N)c2)c2ccccc2n1CCN1CCOCC1` [Example 2M], the inhibition in vivo at 100 mg/kg worked out at 20%.
`Cc1c(C(=O)c2ccn(C)c2)c2ccccc2n1CCN1CCOCC1` [Example 2N]: the inhibition in vivo at 100 mg/kg was 20%.
As for `Cc1c(C(=O)c2ccsc2)c2ccccc2n1CCN1CCOCC1` [Example 2P], the inhibition in vivo at 100 mg/kg was determined as 30%.
With `Cc1c(C(=O)C2CCCCC2)c2ccccc2n1CCN1CCOCC1` [Example 2Q], the inhibition in vivo at 100 mg/kg came to 20%.
Same read-out and setting: the same measure for `Cc1c(C(=O)c2ccc(C(C)(C)C)cc2)c2ccccc2n1CCN1CCOCC1` [Example 2R]: 10%.
On the same count and under the same terms, as for `Cc1c(C(=O)c2cc3ccccc3s2)c2ccccc2n1CCN1CCOCC1` [Example 2S], the figure is 0%; as for `Cc1c(C(=O)c2cccn2C)c2ccccc2n1CCN1CCOCC1` [Example 2T], 30%; as for `Cc1ccc(C(=O)c2c(C)n(CCN3CCOCC3)c3ccccc23)cc1C` [Example 2V], 20%.
Same read-out and setting: the same measure for `CCN(CC)CCCCn1c(C)c(C(=O)c2ccc(OC)cc2)c2ccccc21` [Example 3AD]: 100%.
As for `COc1ccc(C(=O)c2c(C)n(CCCN3CCS(=O)(=O)CC3)c3ccc(F)cc23)cc1` [Example 3AH], the inhibition in vivo at 100 mg/kg came out at 30%.
Still for that read-out and setting: as for `Cc1c(C(=O)c2cccc3ccccc23)c2ccccc2n1CCN1CCNCC1` [Example 3I], the figure is 30%.
Same read-out and setting: as for `Cc1c(C(=O)c2cccc3ccccc23)c2ccccc2n1CCN1CCOC(C)C1` (stereo not shown) [Example 3M], the figure is 10%.
Same read-out and setting: the same measure for `COc1ccc(C(=O)c2c(C)n(CCN3CCCC(NC(C)=O)C3)c3ccccc23)cc1` (stereo not shown) [Example 3N, 1-[2-(3-acetylamino-1-piperidinyl)ethyl]-2-methyl-3-(4-methoxybenzoyl)-1H-indole]: 40%.
`COc1ccc(C(=O)c2c(C)n(CCN3CCCCC3CC3CCCCC3)c3ccccc23)cc1` (stereo not shown) [Example 3Q]: the inhibition in vivo at 100 mg/kg worked out at 40%.
Same read-out and setting: as for `COc1ccc(C(=O)c2c(C)n(CCN3CC(C)OC(C)C3)c3ccccc23)cc1` (stereo not shown) [Example 3R], the figure is 40%; as for `COc1ccc(C(=O)c2c(C)n(CCN3CCN(C=O)CC3)c3ccccc23)cc1` [Example 3S, 1-[2-(4-formyl-1-piperazinyl)ethyl]-2-methyl-3-(4-methoxybenzoyl)-1H-indole], 40%.
Same read-out and setting: the same measure for `COc1ccc(C(=O)c2c(C)n(CCN3CCSCC3)c3ccccc23)cc1` [Example 3U, 2-methyl-3-(4-methoxybenzoyl)-1-[2-(4-thiomorpholinyl)ethyl]-1H-indole]: 30%; for `CCCCNc1ccc(C(=O)c2c(C)n(CCN3CCOCC3)c3ccccc23)cc1` [Example 8B, 2-methyl-3-(4-butylaminobenzoyl)-1-[2-(4-morpholinyl)ethyl]-1H-indole]: 35%.
Still for that read-out and setting: the same measure for `Cc1c(C(=NO)c2ccccc2F)c2cc(F)ccc2n1CCCN1CCOCC1` [Example 13B, 5-fluoro-3-(2-fluorobenzoyl)-2-methyl-1-[3-(4-morpholinyl)propyl]-1H-indole oxime]: 0%.
Consider `Cc1c(/C(=N\O)c2ccccc2F)c2ccccc2n1CCN1CCOCC1` [Example 13C, (E)-3-(2-fluorobenzoyl)-2-methyl-1-[2-(4-morpholinyl)ethyl]-1H-indole oxime], for which the inhibition in vivo at 100 mg/kg was 20%.

Staying with this experiment, now noted: Mus musculus, po, 150 mg./kg. oral; read-out: Ach percent inhibition.
As for `Cc1c(C(=O)c2ccc(NS(C)(=O)=O)cc2)c2ccccc2n1CCN1CCOCC1` [Example 5E], the inhibition in vivo at 150 mg/kg was 38%.

The experiment is the same for the next values; noted with them: Mus musculus, po, 300 mg./kg. oral; read-out: Ach percent inhibition.
As to `Cc1c(C(=O)c2ccc(NS(C)(=O)=O)cc2)c2ccccc2n1CCN1CCOCC1` [Example 5E], the inhibition in vivo at 300 mg/kg is 40%.
Still for that read-out and setting: the same measure for `Cc1c(C(=O)c2ccc(NC(N)=O)cc2)c2ccccc2n1CCN1CCOCC1` [Example 9, 2-methyl-3-(4-carbamylaminobenzoyl)-1-[2-(4-morpholinyl)ethyl]-1H-indole]: 27%.

Staying with this experiment, now noted: Mus musculus, po; read-out: Ach ED50.
Regarding `Cc1c(C(=O)c2cccn2C)c2ccccc2n1C(C)CN1CCOCC1` (stereo not shown) [Example 2H], the ED50 was determined as 49 mg/kg.
On to `Cc1cccc2c(C(=O)c3ccccc3)cn(C(C)CN3CCOCC3)c12` (stereo not shown) [Example 2J], for which the ED50 amounted to 60 mg/kg.
As for `Cc1ccccc1C(=O)c1c(C)n(CCN2CCOCC2)c2ccccc12` [Example 2U], the ED50 worked out at 88 mg/kg.
The same measure, in the same setting: as for `Cc1c(C(=O)C=Cc2ccccc2)c2ccccc2n1CCN1CCOCC1` [Example 2W], the figure is 72 mg/kg.
Still for that read-out and setting: the same measure for `COc1ccc(C(=O)c2c(C)n(CCN(C)CCO)c3ccccc23)cc1` [Example 3-O]: 76 mg/kg; for `COc1ccc(C(=O)c2c(C)n(CCN3CCC(O)CC3)c3ccccc23)cc1` [Example 3A, 2-methyl-3-(4-methoxybenzoyl)-1-[2-(4-hydroxy-1-piperidinyl)ethyl]-1H-indole hydrochloride hemihydrate]: 68.1 mg/kg.
As to `COc1ccc(C(=O)c2c(C)n(CCCCN3CCOCC3)c3ccccc23)cc1` [Example 3AA], the ED50 turned out to be 22 mg/kg.
Still for that read-out and setting: the same measure for `COc1ccc(C(=O)c2c(C)n(CCCCN3CCCCC3)c3ccccc23)cc1` [Example 3AB]: 25 mg/kg.
The same measure, in the same setting: as for `COc1ccc(C(=O)c2c(C)n(CCCCN3CCCC3)c3ccccc23)cc1` [Example 3AC], the figure is 21 mg/kg; as for `COc1ccc(C(=O)c2c(C)n(CCCN3CCSCC3)c3ccc(F)cc23)cc1.Cl` [Example 3AF, 5-fluoro-2-methyl-3-(4-methoxybenzoyl)-1-[3-(4-thiomorpholinyl)propyl]-1H-indole hydrochloride], 139 mg/kg; as for `CCNCCCn1c(C)c(C(=O)c2ccc(OC)cc2)c2cc(F)ccc21` [Example 3AG], 42 mg/kg.
As to `COc1ccc(C(=O)c2c(C)n(CCCN(C)CCO)c3ccc(F)cc23)cc1` [Example 3AJ], the 50% effective dose (ED50) was determined as 35 mg/kg.
The same measure, in the same setting: the same measure for `COc1ccc(C(=O)c2c(C)n(CCN3CCN(C)CC3)c3ccccc23)cc1` [Example 3C]: 53 mg/kg.
As for `CCNCCn1c(C)c(C(=O)c2ccc(OC)cc2)c2ccccc21` [Example 3K], the median effective dose (ED50) was determined as 45.7 mg/kg.
As to `COCCNCCn1c(C)c(C(=O)c2ccc(OC)cc2)c2ccccc21` [Example 3L], the median effective dose (ED50) was 44 mg/kg.
The same measure, in the same setting: the same measure for `COc1ccc(C(=O)c2c(C)n(CCN3CCOC(C)C3)c3ccccc23)cc1` (stereo not shown) [Example 3P]: 71 mg/kg; for `COc1ccc(C(=O)c2c(C)n(CCN3CCCNCC3)c3ccccc23)cc1` [Example 3T]: 53 mg/kg.
Same read-out and setting: the same measure for `COc1ccc(C(=O)c2c(C)n(CCN3CCS(=O)(=O)CC3)c3ccccc23)cc1` [Example 3V]: 254 mg/kg.
Still for that read-out and setting: the same measure for `COc1ccc(C(=O)c2c(C)n(CCCN3CCCC(O)C3)c3ccc(F)cc23)cc1` (stereo not shown) [Example 3W]: 49 mg/kg.
With `COc1ccc(C(=O)c2c(C)n(CCCN3CCOC(C)C3)c3ccc(F)cc23)cc1` (stereo not shown) [Example 3Y], the 50% effective dose (ED50) is 69 mg/kg.
The same measure, in the same setting: the same measure for `COc1ccc2c(C(=O)c3ccc(N)cc3)c(C)n(CCN3CCOCC3)c2c1` [Example 4C, 2-methyl-3-(4-aminobenzoyl)-6-methoxy-1-[2-(4-morpholinyl)ethyl]-1H-indole]: 37 mg/kg; for `Cc1c(C(=O)c2ccc(N)cc2)c2ccccc2n1C(C)CN1CCOCC1` (stereo not shown) [Example 4D, 2-methyl-3-(4-aminobenzoyl)-1-[1-methyl-2-(4-morpholinyl)ethyl]-1H-indole]: 24 mg/kg.
On the same count and under the same terms, the same measure for `CCC(=O)Nc1ccc(C(=O)c2c(C)n(CCN3CCOCC3)c3ccccc23)cc1` [Example 5F]: 76 mg/kg; for `COc1ccc(C(=NO)c2c(C)n(CCN3CCOCC3)c3ccccc23)cc1` [Example 13A, 2-methyl-3-(4-methoxybenzoyl)-1-[2-(4-morpholinyl)ethyl]-1H-indole oxime]: 139 mg/kg.

Staying with this experiment, now noted: Mus musculus, sc, 30 mg./kg. s.c.; read-out: Ach percent inhibition.
In the case of `Cc1c(C(=O)c2ccc(NC(N)=O)cc2)c2ccccc2n1CCN1CCOCC1` [Example 9, 2-methyl-3-(4-carbamylaminobenzoyl)-1-[2-(4-morpholinyl)ethyl]-1H-indole], the inhibition in vivo at 30 mg/kg came out at 20%.
On the same count and under the same terms, the same measure for `Cc1c(C(=O)c2ccc(CNC(N)=NC#N)cc2)c2ccccc2n1CCN1CCOCC1` [Example 10, 2-methyl-3-(4-cyanoguanidinylmethylbenzoyl)-1-[2-(4-morpholinyl)ethyl]-1H-indole]: 7%; for `Cc1c(C(=O)c2ccc(C=O)cc2)c2ccccc2n1CCN1CCOCC1` [Example 11, 2-methyl-3-(4-formylbenzoyl)-1-[2-(4-morpholinyl)ethyl]-1H-indole]: 13%.
